Measured values: EP0414894A1 (priority 1989, dated 1990)
Values joined by “and” are separate entries in the source; they are usually repeats but may differ in a detail not shown here. Identical values can stand only once. Like-named read-outs stand apart in the source and are kept apart here.

How the values were obtained:
Candida albicans [1] = test: fungicidal activity, large-scale test on surfaces of articles; assay type: cell-based; conditions: 0.01% solution in water
Description: (§1) The large-scale tests were carried out by using Candida albicans and Candida tropicalis strains, with their 2-day agar culture being diluted with an isotonic sodium chloride solution up to the concentration of 5x10⁷ cells in 1 ml. The culture suspension was laid on the surface (7 mm in diameter) of articles made of ceramics, metal, wood and rubber as well as a cotton, flannel and woollen cloth which were presterilized.
(§2) In a day after incubation from the treated areas washings were taken with a cotton-gauze tampon which was moistened with Sabouraud's liquid medium, then they were immersed into the tubes containing a similar medium, and placed into thermostat at 37°C for 2 days. Thereafter, the inoculum was transfered onto a solified Sabouraud agar, and the values of growth were recorded according to a conventional procedure. The test data of the composition according to the invention over a known composition (zineb) and the control are given in Table 3.

domestic flies [2] = test: insecticidal activity, laboratory test in gauze boxes; assay type: in vivo; conditions: for Death of flies, % Tests in laboratory: 2% solution in 5% aqueous glucose, observed in 48-72 hours
Description: The compound obtained was used for preparing an insecticidal composition which was a 2% solution of the compound in a 5% aqueous solution of glucose. The test for activity of the insecticidal composition of the invention was conducted on domestic flies. Into gause 10x10 cm boxes /6 boxes/ 6-7-day flies were placed in the number of 50 individuals per box, which were of both sexes. The Petri dishes containing the insecticidal composition of the invention were put into 5 boxes. The observations for fly death were carried out in 48-72 hours. The Petri dish containing a 5% aqueous glucose solution were placed into a control box.

domestic flies [3] = test: insecticidal activity, full-scale (large-scale) test in premises; assay type: in vivo; conditions: 2% solution, 2-3 dishes per 20 m²; 72 hours
Description: The full-scale tests for activity of the insecticidal composition of the invention to domestic flies in habitable and industrial premises were carried out as follows. The Petri dishes containing a 2% solution of the insecticidal composition of the invention were located according 2-3-dishes per 20 m². The composition activity was evaluated by a direct estimation of killed insects in 72 hours or by using an adhesive tape to count the number of flies on its surface prior to and after conducting the test.

Candida Tropi-calis [4] = test: fungicidal activity, laboratory test on Sabouraud medium; assay type: cell-based, Candida tropicalis; conditions: 0.01% solution in water
Description: (§3) A fungicidal composition based on this compound was prepared, which was a 0.01% solution of the compound in water. […] For testing it the Petri dishes containing Sabourand growth medium were inoculated by using suspension of microorganisms containing 5x10⁷ cells of fungi in 1 ml.
(§4) The restricted surface areas (7 mm in diameter) were coated with the composition by means of a small metal spatula 4x4 mm in size. In a day of incubating it at 37°C in the thermostat the composition inhibited the growth of yeast-like fungi. An antifungal activity of the composition was specified according to the method of 10-fold serial dilution using Sabourand's liquid medium in 2 ml of which 2x10⁵ cells were introduced.

Candida Tropi-calis [5] = test: fungicidal activity, large-scale test on surfaces of articles; assay type: cell-based, Candida tropicalis; conditions: 0.01% solution in water
Description: as §1, §2

Candida albicans [6] = test: fungicidal activity, laboratory test on Sabouraud medium; assay type: cell-based; conditions: 0.01% solution in water
Description: as §3, §4

Escherichia coli = test: microbe, parasite or virus in culture; assay type: cell-based; conditions: Escherichia coli, read-out: Death of micro-organisms, % Escherichia coli
Staphylococcus aureus = test: microbe, parasite or virus in culture; assay type: cell-based; conditions: Staphylococcus aureus, read-out: Death of micro-organisms, % Staphylo-cocus aureus
pig ascarid eggs = test: microbe, parasite or virus in culture
Meningopneumonia virus = tested on: Meningopneumonia virus; design: species or system meningopneumonia pathogene/MP strain/
Influenza A viruses = test: virulicidal activity, virus titer in allantoic fluid by hemagglutination-inhibition
Hepatitis B virus = test: virulicidal activity, HBsAg titer in blood serum
Text: table ratio instead of the test composition.

[7] = mice and rats; cited from earlier work
[8] = 24 h, read-out: Death of ascaridal eggs, % after 24 hours
[9] = 48 h, read-out: Death of ascaridal eggs, % after 48 hours

SMILES | Growth inhibition of fungal colonies, % Candida albicans Large-scale tests (Candida albicans [1]) [%] | Death of flies, % Tests in laboratory (domestic flies [2]) [%] | Death of flies, % Tests in large-scale (domestic flies [3]) [%] | Growth inhibition of fungal colonies, % Candida Tropi-calis Laboratory tests (Candida Tropi-calis [4]) [%] | Growth inhibition of fungal colonies, % Candida Tropi-calis Large-scale tests (Candida Tropi-calis [5]) [%] | Growth inhibition of fungal colonies, % Candida albicans Laboratory tests (Candida albicans [6]) [%] | Virulicidal activity (%) under exposure 30 min (Influenza A viruses; concentration 1.0 % by mass) [%] | Virulicidal activity (%) under exposure 30 min (Influenza A viruses; concentration 2.0 % by mass) [%] | also measured
CCOP(=NC(CO)C(O)c1ccc([N+](=O)[O-])cc1)(OCC)OCC (stereo not shown) [Example 2, triethoxyphosphazo-1-para-nitrophenyl-1,3-propandiol] | 100.0 | 84.7 | 83.0 | 100.0 | 100.0 | 100.0 |  |  | 
COP(=NC(CCl)C(Cl)c1ccc([N+](=O)[O-])cc1)(OC)OC (stereo not shown) [Example 9, trimethoxyphosphazo-1-para-nitrophenyl-1,3-dichloropropane] | 100.0 | 85.2 | 83.0 | 100.0 | 100.0 | 100.0 |  |  | killing at 0.5 % (Escherichia coli): 100%; killing at 0.5 % (Staphylococcus aureus): 100%
CCCOP(=NC(CCl)C(O)c1ccc([N+](=O)[O-])cc1)(OCCC)OCCC (stereo not shown) [Example 5, tri-n-propoxyphosphazo-1-para-nitrophenyl-1-chloro-3-propanol] |  | 94.5 | 93.0 |  |  |  | 12.5 | 50.0 | killing at 2 % (pig ascarid eggs; [8]): 100%; killing at 2 % (pig ascarid eggs; [9]): 100%; Virulicidal activity (%) under exposure 60 min (Meningopneumonia virus): 50.0% and 75.0%; Virulicidal activity (%) under exposure 60 min (Influenza A viruses; concentration 1.0 % by mass): 50.0%; Virulicidal activity (%) under exposure 60 min (Influenza A viruses; concentration 2.0 % by mass): 75.0%; Virulicidal activity (%) under exposure 30 min (Hepatitis B virus; concentration 1.0 % by mass): 12.5%; Virulicidal activity (%) under exposure 60 min (Hepatitis B virus; concentration 1.0 % by mass): 50.0%; Virulicidal activity (%) under exposure 30 min (Hepatitis B virus; concentration 2.0 % by mass): 25,0%; Virulicidal activity (%) under exposure 60 min (Hepatitis B virus; concentration 2.0 % by mass): 75,0%
CCOP(=NC(CCl)C(O)c1ccc([N+](=O)[O-])cc1)(OCC)OCC (stereo not shown) [Example 16, triethoxy-phosphazo-1-para-nitrophenyl-1-chloro-3-propanol] | 100.0 |  |  | 100.0 | 100.0 | 100.0 | 50.0 | 98.4 | Virulicidal activity (%) under exposure 30 min (Meningopneumonia virus): 25.0% and 50.0%; Virulicidal activity (%) under exposure 60 min (Meningopneumonia virus): 50.0% and 99.0%; Virulicidal activity (%) under exposure 60 min (Influenza A viruses; concentration 1.0 % by mass): 75.0%; Virulicidal activity (%) under exposure 60 min (Influenza A viruses; concentration 2.0 % by mass): 100.0%; Virulicidal activity (%) under exposure 30 min (Hepatitis B virus; concentration 1.0 % by mass): 50.0%; Virulicidal activity (%) under exposure 60 min (Hepatitis B virus; concentration 1.0 % by mass): 75.0%; Virulicidal activity (%) under exposure 30 min (Hepatitis B virus; concentration 2.0 % by mass): 100,0%; Virulicidal activity (%) under exposure 60 min (Hepatitis B virus; concentration 2.0 % by mass): 100,0%
O=C(N[C@H](COP(=N[C@@H](CO)[C@@H](O)c1ccc([N+](=O)[O-])cc1)(OC[C@@H](NC(=O)C(Cl)Cl)[C@H](O)c1ccc([N+](=O)[O-])cc1)OC[C@@H](NC(=O)C(Cl)Cl)[C@H](O)c1ccc([N+](=O)[O-])cc1)[C@H](O)c1ccc([N+](=O)[O-])cc1)C(Cl)Cl [Example 27] |  |  |  |  |  |  | 100.0 | 100.0 | killing at 2 % (pig ascarid eggs; [8]): 100%; killing at 2 % (pig ascarid eggs; [9]): 100%; Death of flies, % after 48 hours (domestic flies [2]; concentration 2.0 % by mass, after 48 hours): 34.0%; Death of flies, % after 72 hours (domestic flies [2]; concentration 2.0 % by mass, after 72 hours): 62.0%
CCOP(=NC(CCl)C(Cl)c1ccc([N+](=O)[O-])cc1)(OCC)OCC (stereo not shown) [Example 10, triethoxyphosphazo-1-para-nitrophenyl-1,3-dichloropropane] | 100.0 | 89.9 | 88.0 | 100.0 | 100.0 | 100.0 |  |  | killing at 0.5 % (Escherichia coli): 100%; killing at 0.5 % (Staphylococcus aureus): 99.8%
COP(=O)(OC)C(O)C(Cl)(Cl)Cl (stereo not shown) [0,0-dimethyl/1-hydroxy-2,2,2,-trichloroethyl/-phosphonate, reference compound] |  |  | 88.0 |  |  |  |  |  | LD₅₀ [7]: 225 to 1200 mg/kg
COP(=NC(CO)C(O)c1ccc([N+](=O)[O-])cc1)(OC)OC (stereo not shown) [Example 1, trimethoxyphosphazo-1-para-nitrophenyl-1,3-propandiol] | 100.0 | 89.1 | 87.0 | 100.0 | 100.0 | 100.0 |  |  | 
COP(=NC(CCl)C(O)c1ccc([N+](=O)[O-])cc1)(OC)OC (stereo not shown) [Example 15] | 100.0 |  |  | 100.0 | 100.0 | 100.0 |  |  | 
